A short description of series [1]: MTT cytotoxicity assay on MT-4 cells. The conditions noted are these: human. The method, then: (§1) The permanent human T-cell lines MT-4 and MT-2 were maintained at 37°C in a humidified atmosphere containing 5% CO2 in RPMI 1640 (Sigma-Aldrich) medium supplemented with 10% heat-inactivated fetal bovine serum (Sigma-Aldrich), 100 IU/ml penicillin and 100 μg/ml streptomycin (Sigma-Aldrich). HIV-1 (HTLV-IIIB) was obtained from the culture supernatant of MT-4/HTLV-IIIB cells. The 50% HIV-1 tissue culture infectious dose (TCID50) on MT-4 cells was determined by virus yield assay.
(§2) To determine the in vitro cytotoxic effect of the compounds, viability of the treated and untreated cells was measured by a colorimetric assay as described earlier. Briefly, MT-4 and MT-2 cells were seeded into a 96-well plate at a density of 15,000 cells/well in the presence of different concentrations of the compounds dissolved in dimethyl sulfoxide (DMSO). […] After 4 days of incubation, cell cultures were analyzed using MTT cell viability assay (Sigma-Aldrich) to monitor the reduction of 3-(4,5-dimethylthiazol-2-yl)-2,5-diphenyl-tetrazolium bromide (MTT) to a blue formazan product by metabolically active cells. To initiate the cell viability assay, 20 μl MTT (5 mg/mL dissolved in PBS) was added to each well. After 4 h incubation cell supernatant was removed and 100 μl DMSO per well was added. The absorbance was measured at 550 nm on a microplate reader after mixing the contents thoroughly. The cytotoxicity tests were implemented in two biological replicates.
A general note: Formazan colour is commonly taken as a measure of viable cells.

A short description of series [2]: MTT cytotoxicity assay on MT-2 cells. The conditions noted are these: human. The method, then: as §1, §2
In the next series the test system is HIV-1 (HTLV-IIIB). Kind of series: Cell-based antiviral assay, HIV-1 p24 core protein ELISA in supernatants of infected MT-4 and MT-2 cells. The conditions noted are these: nontoxic concentrations (2.1 μM), 5 days of incubation. The procedure: MT-4 and MT-2 cells at a density of 15,000 cells/well were incubated in 96-well plates in the presence of compounds at 37°C in 5% CO2 for 5 days. Simultaneously, cells were exposed to HIV-1 (2,32∗10^2 TCID50/ml). Untreated and infected or AZT (3′-azido-3′-deoxythymidine)-treated cells were used as controls. After the incubation period, diluted culture supernatants were analyzed for HIV production by determining the amount of viral core protein using a p24 enzyme-linked immunosorbent assay (ELISA) kit (Fujirebio) according to manufacturer's instructions. The results were expressed relative to the control of untreated HIV-1 infected cells. The experiment was performed in four biological replicates. Statistical analysis was performed by one-way ANOVA followed by Bonferroni's post hoc test.
(In general: In an ELISA, binding on a coated surface is turned into a signal by an enzyme label.)

Series [3] concerns the target T1, recombinant HIV-1 integrase (IN) (Human immunodeficiency virus type 1 group M subtype B, UniProt P04585).
T1 construct: activity of recombinant HIV-1 reverse transcriptase (RT) and integrase (IN); purchased Express Biotech International
Briefly: HIV-1 integrase inhibition, IN assay kit. The class given is biochemical. The conditions noted are these: 2.15 μM concentration. The method, then: (§3) Inhibitory effects of compounds on the HIV-1 reverse transcriptase and integrase activity were measured by a colorimetric RT kit (Roche Diagnostics) and IN assay kit (Express Biotech International) according to the instructions of the manufacturer. Reverse transcriptase assay measures the amount of labeled nucleotides incorporated during the transcription process of RNA. Nevirapine, a nonnucleoside RT inhibitor, was used as a positive control in the RT reaction. HIV-1 integrase assay measures the integrase activity after 3′-end processing of the HIV-1 LTR donor substrate DNA and catalyzing the strand-transfer recombination reaction to integrate the donor substrate DNA into the target substrate DNA. Sodium azide was applied as a positive control compound in the experiments measuring the integrase activity. The RT and IN inhibition assays were performed in two biological replicates. Statistical analysis was performed by one-way ANOVA followed by Bonferroni's post hoc test, and a planned comparison by unpaired T-test was also performed (see Figure 3(b)).

The target of series [4] is T2, recombinant HIV-1 reverse transcriptase (RT) (Human immunodeficiency virus type 1 group M subtype B, UniProt P04585).
T2 construct: activity of recombinant HIV-1 reverse transcriptase (RT) and integrase (IN); purchased Roche Diagnostics
Briefly: HIV-1 reverse transcriptase inhibition, colorimetric RT kit. Format: biochemical. Particulars: 21.5 μM concentration. The method, then: as §3

In series [5] the test system is HIV. Further details: method as in doi:10.3844/ajidsp.2009.135.141. Particulars: normal peripheral blood mononuclear cells (PBMC); cited from earlier work.
Another series deals with HIV-1 BaL, HIV-1 MN. Further details: method as in PMID 25546350. Particulars: TZM-bl cell plus HIV-1 BaL and H9, and PBMC plus HIV-1 MN; read-out: IC50 antiviral effect; cited from earlier work.
In series [6] the test system is HIV-1. Also on record: method as in PMID 25546350. The conditions noted are these: C8166 cells; cited from earlier work.
Series [7] deals with HIV-1. Further details: method as in PMID 25546350. Particulars: C8166 cells; cited from earlier work. The source holds these as a separate data set.
The test system of the next series is MT-2 cells. The conditions noted are these: at concentrations as high as 800 μM; cited from earlier work.
The subject of series [8] is IN (strand transfer reaction). Also on record: method as in PMID 12213478. The conditions noted are these: in vitro; cited from earlier work.
For series [9], the system named is HIV. Also on record: method as in PMID 12213478. Particulars: MT-2 cells; read-out: IC50 HIV infection of MT-2 cells; cited from earlier work.
A further series relates to IN. Particulars: cited from earlier work.

`O=c1c(O)c(-c2ccc(O)c(O)c2)oc2c(O)c(OC3OC(CO)C(O)C(O)C3O)cc(O)c12` (stereo not drawn) [Gossypitrin (2), gossypitrin]: the CC50 (in general, the concentration giving 50% cytotoxicity) at 4 days is 101 µM in [1] (MT-4 cells) and 113 µM in [2] (MT-2 cells). In the series on HIV-1 (HTLV-IIIB), the “Effect on HIV-1 replication (p24 core protein levels)” value (shortened to “Effect on HIV-1 replication”) is reported as “ineffective”.

With `O=c1c(O)c(-c2ccc(O)cc2)oc2c(O)c(OC3OC(CO)C(O)C(O)C3O)cc(O)c12` (stereo not drawn) [Herbacitrin (1), herbacitrin], the “Inhibition of HIV-1 integrase activity” value in [3] (listed as Herbacitrin) was “active”; in series [3] (listed as herbacitrin), “inhibited”. In addition, the cytotoxic concentration (CC50) at 4 days in series [1] (MT-4 cells) turned out to be 27.8 µM; in [2] (MT-2 cells), 63.6 µM. In addition, the “Inhibition of HIV-1 reverse transcriptase activity” value was “inhibit” in series [4] (listed as Herbacitrin) and “significantly inhibited” in series [4] (listed as herbacitrin). In the series on HIV-1 (HTLV-IIIB), the “Effect on HIV-1 replication” value was “reduced HIV-1 replication”.

On to `O=c1c(O)c(-c2ccc(O)c(O)c2)oc2cc(O)cc(O)c12` [Quercetin (3), quercetin], for which the “Anti-HIV activity (HIV replication, virus infectivity)” value in the series on HIV [5] was “significant anti-HIV activity”. Moreover, the half-maximal inhibitory concentration (IC50) (as a rule, the concentration that inhibits the measured activity by half) in the series on HIV-1 BaL, HIV-1 MN was 29.8 to 89 µM. The “EC50 inhibition of syncytium formation” value in the series with HIV-1 [6] was 42.55 µg/mL. Further, the CC50 at 4 days in [1] was found to be 108 µM; in [2], 157 µM. For the same compound, in the series on HIV-1 (HTLV-IIIB), the “Effect on HIV-1 replication” value was “reduced HIV-1 replication”. In addition, the “EC50 protection of HIV-1 induced cytopathic effects” value in the series on HIV-1 [7] was 23.2 µg/mL.

Turning to `O=c1cc(-c2ccc(O)c(O)c2)oc2cc(O[C@@H]3O[C@H](CO)[C@@H](O)[C@H](O)[C@H]3OS(=O)(=O)O)cc(O)c12` [Thalassiolin A], in the series with MT-2 cells, the Cytotoxicity result is reported as “no cytotoxicity”. Besides, in [8], the “Inhibitory concentration against the strand transfer reaction” value is reported as “submicromolar”. Also, the concentration for half-maximal inhibition (IC50) with HIV [9] is ~30 µM.

Consider `O=c1c(O)c(-c2ccc(O)c(O)c2)oc2cc(O)c(O)c(O)c12` [quercetagetin, quercetagetin (6-hydroxyquercetin)], for which the “Inhibition of viral cleavage and integration” value in the series with IN is listed as “strong inhibitor”.

The record behind these values is article PMC6378053, “Flavonol 7-O-Glucoside Herbacitrin Inhibits HIV-1 Replication through Simultaneous Integrase and Reverse Transcriptase Inhibition” (Evidence-based Complementary and Alternative Medicine : eCAM, 2019).
